# Like-named read-outs stand apart in the source and are kept apart here.
# Tests used:
# [1] = test system: tat-dependent promoter activity of viral LTR carrying the TAR sequence; assay: trans-activation CAT assay, test plasmids transfected into HeLa/C63/tat cells; format: cell-based, HeLa/C63/tat (clone 9) cells
# From the text: (§1) If tat binding to TAR is necessary for trans-activation, then viral LTRs carrying TAR sequences with low affinities for tat should always have reduced tat-dependent promoter activity in vivo. Site-directed mutagenesis experiments on TAR have shown that trans-activation requires sequences in both the U-rich bulge (10, 11) and the loop sequence (12, 27, 28). These observations have now been extended, using TAR mutations with known affinities for tat in transfection experiments, the results of which are shown in FIG. 8. The experiments used either HeLa cells (FIG. 8a-d) or a constitutive producer of tat, HeLa/C63/tat cells (FIG. 8e-f).
# (§2) The TAR sequences depicted in FIG. 3 [SEQ ID NO: 1-11] were introduced into a test plasmid, pD5-3-3, which carries a LTR and approximately 300 bases of 5' flanking sequences derived from the infectious proviral clone NL4 (29). The bacterial chloramphenicol acetyltransferase (CAT) gene and SV40 intron and terminator sequence from pSV2-CAT (30) was inserted downstream of TAR by cloning into the HindIII site at +77. Trans-activation was measured either by cotransfection of HeLa cells with the test plasmids and the tat expression plasmid pC63-4-1 (6) (panels a-d in FIG. 10), or by transfection of the test plasmids alone into HeLa/C63/tat (clone 9) cells (panels e-h).
# In these experiments, cells were plated at a density of 3×10^5 in a T25 flask and transfected by the calcium phosphate method (31). Transfections in HeLa cells used 8.0 ug of test plasmid, 1.0 to 10 ug of pC63-4-1 plasmid and 10 ug of calf thymus carrier DNA. Transfections of the HeLa/C63/tat (clone 9) cells used 0.5 to 10 ug of test plasmid and 10 ug of calf thymus carrier DNA. The HeLa/C63/tat (clone 9) cells were prepared by infection of HeLa cells with helper-free amphotrophic C63-4-1 MoMuLV-tat virus. Following selection in 2mg/ml G418 individual clones were expanded and the expression of tat protein confirmed by immunoprecipitation with monoclonal antibodies to tat (6). Cell extracts were prepared at 48h post-transfection in 150 ul lysis buffer (0.2% NP40, 20 mM Tris pH 8.0, 4mM MgCl2), heat inactivated at 65° C. for 10 min and stored at -20° C. To ensure that CAT activity was measured in the linear range of the assay (30), at less than 50% conversion of chloramphenicol in its acetylated forms, for each transfection, three different aliquots containing from 5 to 70 ul extract were assayed for CAT activity. Reactions contained extract diluted with lysis buffer to a final volume of 70 ul, 10 ul AcCoA (2.5mg/ml in lysis buffer); 0.5 ul (14C) - chloramphenicol (60 mCi/m mol) and were incubated for 45 min at 37° C. Reaction products were extracted with ethylacetate, separated by thin layer chromatography on silica plates and bands were counted in scintillation fluid to calculate the chloramphenicol conversion efficiency per 10 ul of extract.
# HIV-1 tat protein = assay: competition filter binding assay, mutant TAR transcripts against labelled HIV-1 TAR RNA (FIG. 7, Table 1); conditions: 20 nM TAR RNA, 40 nM tat protein; for IC50: read-out: D1/2 (concentration of competitor RNA that reduces binding of HIV-1 tat to HIV-1 TAR RNA to 50%)
# Experimental: Binding reactions (500 ul) were set up on ice and contained 80 pM ^32 P-labeled TAR RNA (17,600 dpm, 200 uCi/n mol) and unlabeled TAR RNA to give a final concentration of 20 nM, 0.5 ug calf thymus DNA, 0.2 ug yeast tRNA, 40 units RNAsin (Promega), 50 mM Tris HCl and 20 mM KCl. After addition of competitor RNA, binding was initiated by addition of HIV-1 tat protein to a final concentration of 400 ng/ml (40 nM). The binding reaction mixtures were then filtered under reduced pressure through pre-washed nitrocellulose filters (Millipore 0.45 uM pore size) and filters were dried and counted by liquid scintillation counting.
# The fraction of^32 P-labeled TAR RNA bound was plotted against the final concentration of competitor RNA. In these experiments reactions included 20 nM TAR and 40 nM tat protein and increasing amounts of unlabeled competitor RNA from 40 nm to 6 uM. […] In theory, 40 nM tat will bind 50% of the input TAR RNA (D1/2) when the total TAR RNA concentration is 56 nM.
# For competition experiments, binding reactions (500 ul) were set up on ice and contained 80 pM ^32 P-labeled TAR RNA (17,600 dpm, 200 uCi/n mol) and unlabeled TAR RNA to give a final concentration of 20 nM, 0.5 ug calf thymus DNA, 0.2 ug yeast TRNA, 40 units RNAsin (Promega), 50 mM Tris-HCl pH 7.9 and 20 mM KCl. After addition of 0 to 6 uM competitor RNA, binding was initiated by addition of HIV- 1 tat protein to a final concentration of 400 ng/mi (40 nM). The binding reaction mixtures were then filtered under reduced pressure through pre-washed nitrocellulose filters (Millipore 0.45 u pore size) and filters were dried and counted by liquid scintillation counting.
# KRel is the ratio of the D1/2 values for HIV-1 TAR and competitor RNA.
# [2] = test system: tat-dependent promoter activity of viral LTR carrying the TAR sequence; assay: trans-activation CAT assay, HeLa cells cotransfected with LTR-CAT test plasmid and tat expression plasmid; format: cell-based; conditions: HeLa cells cotransfected with tat plasmid
# From the text: as §1
# as §2, with “e-h). […]” for “e-h).”
# tat protein = assay: competition filter binding assay, bulge and stem mutant TAR RNAs (FIGS. 10-17, Tables 2 and 3); parameters: species or system HIV-1; conditions: 20 nM TAR RNA, read-out: D1/2
# From the text: The graphs shown in FIGS. 10 to 17 illustrate competition for tat binding between TAR RNA and various mutant TAR RNA sequences. In FIGS. 10 and 11 the region unpaired residues at positions 23, 24, 25, 23 being U, is shown to be essential for tat FIGS. 12, 13, 14, 15, 16 and 17 the base stem immediately adjacent to the U-rich bulge be required for efficient tat binding, with there being a requirement for a binding pair at residues 22 and 40 on one side of the bulge, and the base pair G26 - C39 on the other side of the bulge.
# In Tables 2 and 3, D1/2 values for various mutant TAR RNA-L sequences are given along with the results of transactivation experiments in which the altered TAR RNA sequences were introduced into the CAT reporter plasmid D5-3-3. TAR RNA sequences which bind poorly are poor competitors and show increased values for D1/2.
# Competitor RNA was produced by transcription as described in the method ---or FIG. 7. Binding reactions (500ul) contained 20 nM TAR RNA, 20,000 dpm ^32 P- labeled TAR RNA, 0.5 ug calf thymus DNA, 0.2 ug yeast tRNA, 40 Units RNAsin (Promega), 50 mM Tris-HCl pH7.5, 20 mM KCl in a final volume of 500 ul. […] The binding reaction mixtures were then filtered through pre-washed nitrocellulose filters (Millipore 0.45 u pore size) and the radioactivity retained on the filters assayed by liquid scintillation counting of the dried filters.
# [3] = test system: transactivation by tat (CAT reporter plasmid D5-3-3); assay: transactivation in vivo, altered TAR sequences in CAT reporter plasmid D5-3-3 (Tables 2 and 3); format: cell-based
# Experimental: as §2
# In these experiments, cells were plated at a density of 3×10^5 in a T25 flask and transfected by the calcium phosphate method (31). […] To ensure that CAT activity was measured in the linear range of the assay (30), at less than 50% conversion of chloramphenicol in its acetylated forms, for each transfection, three different aliquots containing from 5 to 70 ul extract were assayed for CAT activity. […] Reaction products were extracted with ethylacetate, separated by thin layer chromatography on silica plates and bands were counted in scintillation fluid to calculate the chloramphenicol conversion efficiency per 10 ul of extract. […]
# [4] = Table 2, mutations in the U-rich bulge
# [5] = Table 3, mutations in the stem surrounding the U-rich bulge
Substance,CAT expression [1],KRel (ratio of D1/2 values for HIV-1 TAR and competitor RNA) (HIV-1 tat protein),IC50 (HIV-1 tat protein),also measured
"SSA: sense stem, antisense loop sequence (GGGUCUCUCUGGUUAGACCAGAUUUGAGCUCCCAGGCUCUCUGGCUAACUAGGGAACCC; chemistry not given here)",no significant increase over basal levels of CAT expression,–,–,–
"delta U (bulge): TAR RNA in which residues 23-25 are deleted (GGGUCUCUCUGGUUAGACCAGAGAGCCUGGGAGCUCUCUGGCUAACUAGGGAACCC; RNA, backbone not given here)",null phenotypes,0.15,420 nM,IC50 (HIV-1 tat protein; listed as SEQ ID NO: 8): 290 nM
"ASS: anti-sense lower stem, sense upper stem and loop sequences (GGGUUCCCUAGUUAGACCAGAUUUGAGCCUGGGAGCUCUCUGGCUAACCAGAGAGACCC; chemistry not given here)",wild-type expression levels,–,–,–
"G to U (loop): TAR RNA in which residues 32-34 are changed to uridine (U) (GGGUCUCUCUGGUUAGACCAGAUUUGAGCCUUUUAGCUCUCUGGCUAACUAGGGAACCC; RNA, backbone not given here)",significant CAT activity observed at high plasmid concentrations,0.97,66 nM,–
SAS: anti-sense upper stem flanked by sense lower stem and loop sequences (GGGUCUCUCUGGUUAGCCAGAGAGCCUGGGAGCUCAAAUCUGGUCUAACUAGGGAACCC; chemistry not given here),no significant increase over basal levels of CAT expression,–,–,–
G28 to C28: TAR point mutation expected to disrupt the top of the TAR stem/loop structure (GGGUCUCUCUGGUUAGACCAGAUUUGACCCUGGGAGCUCUCUGGCUAACUAGGGAACCC; chemistry not given here),null phenotypes,0.09,680 nM,trans-activation phenotype [2]: defective phenotype
"HIV-1 TAR (UUU): full length HIV-1 TAR RNA of 59 residues prepared by transcription, wild type, UUU bulge (GGGUCUCUCUGGUUAGACCAGAUUUGAGCCUGGGAGCUCUCUGGCUAACUAGGGAACCC; unmodified RNA) [reference compound]",–,1.00,64 nM,"IC50 (tat protein; [4]): 90 nM; IC50 (tat protein; [5]): 90 nM; Units CAT activity/500 ng plasmid [3, 4]: 14,400 Units CAT activity/500 ng plas; Units CAT activity/500 ng plasmid [3, 5]: 5,600 Units CAT activity/500 ng plas"
